Results reported in patent publication US20260014184A1, “ADENOSINE DERIVATIVES FOR USE IN THE TREATMENT OF NEURODEGENERATIVE DISORDERS AND CANCER” (UNIVERSITY COLLEGE CARDIFF CONSULTANTS LIMITED, priority 2022, published 2026).

Legend:
[1] = test system: HeLa cells transfected with YFP-parkin; experiment: Immunofluorescence for YFP-parkin localisation and TOM20 (mitochondrial fragmentation); type: cell-based; conditions: for parkin localisation to the mitochondria after pre-treatment followed by CCCP, compared to CCCP alone: 50 μM 24 h, then 10 μM CCCP; for impact on mitochondrial fragmentation (TOM20), compound alone / impact on parkin localisation, compound alone: 50 μM, 24 h, no niclosamide or CCCP
Method: Cells were seeded on PerkinElmer PhenoPlate 96-well plates, followed by treatment with compounds. Cells were fixed in chilled 4% PFA for 10 min followed by washes in PBS. […] Following PBS washes, cells were blocked using blocking buffer (PBS, 5% BSA, 0.1% Tween20) for 1 h at room temperature. Primary antibodies were diluted in blocking buffer and added to cells to be incubated overnight at 4° C. Cells were subsequently washed with PBS-T and the appropriate secondary antibodies (diluted in blocking buffer) were added for 2 h at room temperature in darkness. 10 μg/ml of Hoechst 33258 stain was added with secondary antibodies when required. Cells were again washed with PBS-T followed by addition of PBS with 0.02% sodium azide. Cells were then stored at 4° C. until ready for imaging. Primary antibodies used for immunofluorescence are as follows: Phospho-Ub Ser 65 (Sigma-Aldrich cat #ABS1513-1), TOM20 (Santa-Cruz cat #sc-17764). Secondary antibodies and stains used in immunofluorescence; Anti-IgG2a Alexa Fluor™ 546 (ThermoFisher cat #A21133) Anti-rabbit Alexa Fluor™ 647 (ThermoFisher cat #A21244), Hoechst 33258 stain (Sigma-Aldrich cat #B2883).
Confocal microscopy was performed using a Zeiss LSM800 w/Airyscan fluorescent microscope equipped with lasers emitting at 405 nm, 488 nm, 561 nm and 640 nm. All images were captured using a 40x oil immersion objective lens and processed using Zeiss ZEN software. Images were analysed and quantified using Columbus (PerkinElmer) and TIBCO Spotfire software.
First, HeLa cells transfected with YFP-parkin were either left untreated or treated with 50 μM kinetin riboside, nucleosides 9a and 9c for 24 h.

[2] = test system: PINK1 KO MEFs; experiment: MitoQC mitophagy assay, PINK1 knock-out MEF; type: cell-based; conditions: 5 μM, 24 h
From the text: With the inhibition of ubiquitin phosphorylation and parkin localisation to the mitochondria by kinetin riboside and the nucleoside analogue 9c, we next asked whether these compounds still induce mitophagy in a PINK1 dependent manner. To explore this, we employed the established MitoQC assay for measuring mitophagy in cells^11,12.

[3] = target: T1, TcPINK1 (Tribolium castaneum, UniProt D6WMX4); experiment: PINK1 in vitro kinase assay with parkin or ubiquitin as substrates; type: biochemical; conditions: increasing concentrations, max 100 μM; human parkin or ubiquitin as substrates
T1 construct: purchased MRC PPU Reagents and Services (University of Dundee, U.K.)
T1 sequence (D6WMX4 6-570): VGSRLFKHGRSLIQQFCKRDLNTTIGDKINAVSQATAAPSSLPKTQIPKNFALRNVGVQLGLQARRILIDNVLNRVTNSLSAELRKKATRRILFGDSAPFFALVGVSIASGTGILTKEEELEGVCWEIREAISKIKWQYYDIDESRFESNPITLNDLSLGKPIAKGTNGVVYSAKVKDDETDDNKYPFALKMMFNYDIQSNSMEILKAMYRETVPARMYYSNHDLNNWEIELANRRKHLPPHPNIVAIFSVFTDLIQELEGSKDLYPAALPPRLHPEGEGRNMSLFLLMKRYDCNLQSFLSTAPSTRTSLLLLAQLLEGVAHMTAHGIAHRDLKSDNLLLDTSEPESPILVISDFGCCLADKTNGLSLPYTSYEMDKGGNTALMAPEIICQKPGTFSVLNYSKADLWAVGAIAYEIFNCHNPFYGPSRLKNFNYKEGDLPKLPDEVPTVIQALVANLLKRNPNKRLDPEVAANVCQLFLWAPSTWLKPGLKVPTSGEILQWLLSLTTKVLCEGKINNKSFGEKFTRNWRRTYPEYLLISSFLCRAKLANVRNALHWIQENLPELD
Method: This assay was carried out by the MRC PPU Reagents and Services (University of Dundee, U.K.). The assay was conducted as follows: TcPINK1 (5-20mU diluted in 50 mM Tris pH 7.5, 0.1 mM EGTA, 1 mg/ml BSA, 0.1% mercaptoethanol) is assayed against GST PARK2 TV3 or Ubiquitin-His in a final volume of […] containing 50 mM Tris pH 7.5, 0.1 mM EDTA, 10 mM DTT, protein substrate (0.3 mg/ml of GST PARK2 TV3 or 1 mg/ml of Ubiquitin-His, 10 mM magnesium acetate and 0.1 mM [33P-γ-ATP](50-1000 cpm/pmole) in the presence of the relevant small molecule (serial dilution with the highest concentration being 100 μM) and incubated for 30 min at room temperature. Assays are stopped by addition of 5 μl of 0.5 M (3%) orthophosphoric acid and then harvested onto P81 Unifilter plates with a wash buffer of 50 mM orthophosphoric acid.
To examine this further, we ran in vitro kinase assays employing recombinant and constitutively active Tribolium castaneum PINK1 (TcPINK1) and either human parkin or ubiquitin as substrates in the presence of increasing concentrations (max 100 μM) of kinetin riboside, benzyladenosine 9c or its triphosphate derivative (FIG. 6). […]

Structure (SMILES)	parkin localisation to the mitochondria after pre-treatment followed by CCCP, compared to CCCP alone [1]	impact on mitochondrial fragmentation (TOM20), compound alone [1]	impact on parkin localisation, compound alone [1]	mitophagy in PINK1 KO MEFs [2]	effect on TcPINK1 kinase activity (covalent inhibition) [3]
OC[C@H]1O[C@@H](n2cnc3c(NCc4ccco4)ncnc32)[C@H](O)[C@@H]1O [kinetin riboside, N^6-(2-furanylmethyl) adenosine]	inhibition	did not have any impact	did not have any impact	not observed	unlikely to be PINK1 covalent inhibitors
OC[C@H]1O[C@@H](n2cnc3c(NCc4ccccc4)ncnc32)[C@H](O)[C@@H]1O [9c, (2R,3R,4S,5R)-2-(6-(benzylamino)-9H-purin-9-yl)-5-(hydroxymethyl)tetrahydrofuran-3,4-diol]	significant reduction	did not have any impact	did not have any impact	not observed	unlikely to be PINK1 covalent inhibitors
